# Source: ChEMBL document CHEMBL3232798, “Synthesis and antimycobacterial activities of some new thiazolylhydrazone derivatives” (Bioorg Med Chem Lett, 2014)
# How the values were obtained:
# [1] = system: Mycobacterium tuberculosis; experiment: Antimycobacterial activity against Mycobacterium tuberculosis H37Rv by microplate alamar blue assay; format: functional
# [2] = Cytotoxicity against human THP1 cells at 50 ug/ml by MTT assay; format: cell-based; conditions: THP-1 cells, read-out: INH
Structure (SMILES),MIC [1] [µM],cytotoxicity at 50 ug/ml [2] [%]
C(=N\Nc1nc(-c2ccccc2)cs1)/c1ccc(-n2ccnc2)cc1,72.5,21.8
Fc1ccc(-c2csc(N/N=C/c3ccc(-n4ccnc4)cc3)n2)cc1,4.3,18.7
Clc1ccc(-c2csc(N/N=C/c3ccc(-n4ccnc4)cc3)n2)cc1,8.22,32.1
Brc1ccc(-c2csc(N/N=C/c3ccc(-n4ccnc4)cc3)n2)cc1,59.1,36.8
Clc1ccc(-c2csc(N/N=C/c3ccc(-n4ccnc4)cc3)n2)c(Cl)c1,15.1,28.8
Cc1ccc(-c2csc(N/N=C/c3ccc(-n4ccnc4)cc3)n2)cc1,33,36
COc1ccc(-c2csc(N/N=C/c3ccc(-n4ccnc4)cc3)n2)cc1,4.16,26.8
O=[N+]([O-])c1ccc(-c2csc(N/N=C/c3ccc(-n4ccnc4)cc3)n2)cc1,1.03,16.4
C(=N\Nc1nc(-c2ccccc2)cs1)/c1ccc(-n2cncn2)cc1,72.2,28.4
Fc1ccc(-c2csc(N/N=C/c3ccc(-n4cncn4)cc3)n2)cc1,4.29,35.9
Clc1ccc(-c2csc(N/N=C/c3ccc(-n4cncn4)cc3)n2)cc1,8.2,28.4
Brc1ccc(-c2csc(N/N=C/c3ccc(-n4cncn4)cc3)n2)cc1,29.5,32.6
Clc1ccc(-c2csc(N/N=C/c3ccc(-n4cncn4)cc3)n2)c(Cl)c1,3.76,8.9
Cc1ccc(-c2csc(N/N=C/c3ccc(-n4cncn4)cc3)n2)cc1,4.33,13.6
COc1ccc(-c2csc(N/N=C/c3ccc(-n4cncn4)cc3)n2)cc1,16.6,23
O=[N+]([O-])c1ccc(-c2csc(N/N=C/c3ccc(-n4cncn4)cc3)n2)cc1,3.99,12.9
CC[C@@H](CO)NCCN[C@@H](CC)CO [ETHAMBUTOL],7.65,
NNC(=O)c1ccncc1 [ISONIAZID],0.36,
CO[C@H]1/C=C/O[C@@]2(C)Oc3c(C)c(O)c4c(O)c(c(/C=N/N5CCN(C)CC5)c(O)c4c3C2=O)NC(=O)/C(C)=C\C=C\[C@H](C)[C@H](O)[C@@H](C)[C@@H](O)[C@@H](C)[C@H](OC(C)=O)[C@@H]1C [RIFAMPIN],0.12,
